Results reported in patent US8497269B2, “Phthalazine compounds as p38 map kinase modulators and methods of use thereof” (Amgen Inc., priority 2008, dated 2013).

How the values were obtained:
[1] = test system: TNF-α induced IL-8 production in human whole blood; assay: Inhibition of TNF-α induced IL-8 in 50% human whole blood; assay type: cell-based; conditions: 1 nM TNF-α, secreted IL-8, 16-18 hours, read-out: WB TNF/IL8 IC50
Description: Inhibition of TNF-α Induced IL-8 in 50% Human Whole Blood
Test compounds were evaluated in vitro for the ability to inhibit the production of secreted IL-8 by whole blood activated with TNF-α. Fresh human whole blood was obtained from healthy, non-medicated volunteers in sodium heparin tubes.
Compound Dilution—Assay Procedure
Test compounds are serially diluted 1:3 in DMSO and then diluted 1:250 into R10 (RPMI 1640, 10% human serum AB, 1× pen/strep/glutamine) to the 4× working concentration to be used in the assay. 100 ul heparinized whole blood is plated into wells of 96 well flat bottom plates. 50 ul of either 4× compound or DMSO control (Final DMSO concentration is 0.1%) are added to the appropriate wells. Plates are incubated for 1 hour at 37 degrees Celsius. 50 ul of 4×TNF-α (4 nM TNF-α, for a final concentration of 1 nM) or control (media alone) is added to the appropriate wells (Total volume=200 ul). Plates are incubated overnight (16-18 hours). 100 ul of supernatant is collected and stored in 96-well round bottom polypropylene plates at −80 degrees Celsius or assayed immediately for IL-8.
Cytokines are measured on antibody (Ab) sandwich ECL based 96-well detection plates. 20 ul of supernatant are added to plate and plate is sealed and shaken at RT for 1 hour. 130 ul of detection Ab cocktail is added and plates are sealed and shaken for 1 hour in the dark at RT. Plates are read on MSD Sector HTS instrument. Data are analyzed and IC50 values generated using Activity Base and Xl-fit programs.

[2] = molecular target: human p38α (Homo sapiens, UniProt Q16539); assay: Purified and activated recombinant human p38α assay (HTRF); assay type: biochemical; conditions: 1 nM p38α, 50 μM ATP, 100 nM GST-ATF2-Avitag, 1 hour at RT, read-out: p38a IC50 IC50
Chain of human p38α (Q16539 whole entry): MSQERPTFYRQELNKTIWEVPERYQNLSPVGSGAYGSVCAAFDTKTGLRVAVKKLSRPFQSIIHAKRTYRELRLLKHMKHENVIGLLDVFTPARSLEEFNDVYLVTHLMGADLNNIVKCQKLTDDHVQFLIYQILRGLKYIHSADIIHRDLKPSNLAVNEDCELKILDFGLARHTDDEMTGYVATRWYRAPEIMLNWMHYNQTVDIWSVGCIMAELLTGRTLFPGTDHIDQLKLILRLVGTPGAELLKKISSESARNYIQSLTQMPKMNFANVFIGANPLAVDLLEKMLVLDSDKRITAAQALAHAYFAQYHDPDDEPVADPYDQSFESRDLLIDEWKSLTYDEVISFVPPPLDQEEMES
Description: Purified and Activated Recombinant Human p38α Assay
Kinase Reaction Buffer: Kinase reaction buffer for p38α HTRF assays consists of 50 mM Tris-pH 7.5, 5 mM MgCl2, 0.1 mg/mL BSA, 100 μM Na3VO4 and 0.5 mM DTT.
HTRF Detection Buffer: HTRF detection buffer contains 100 mM HEPES-pH 7.5, 100 mM NaCl, 0.1% BSA, 0.05% Tween-20, and 10 mM EDTA.
Serial Dilution of Compounds: Compounds were dissolved in 100% DMSO and serially diluted (3 fold, 10 point) in a polypropylene 96-well microtiter plate (drug plate). The final starting concentration of compounds in the p38α enzymatic assays was 1 μM. Columns 6 and 12 (HI controls and LO controls respectively) in the drug plate were reserved as controls and contained only DMSO. Kinase Reaction: The p38α kinase reactions were carried out in a polypropylene 96-well black round bottom assay plate in total volume of 30 μL kinase reaction buffer. Appropriate concentration of purified and activated enzyme (recombinant human) was mixed with indicated concentration of ATP and 100 nM GST-ATF2-Avitag, in the presence or absence (HI control) of Compound. See table below for actual concentrations. In the absence of substrate, the background was measured as LO control. The reaction was allowed to incubate for 1 hour at RT. Assay Reagent Concentrations: The final reagent concentrations were 1 nM p38α and 50 μM ATP. […] After 60 minutes incubation at room temperature, the assay plate was read in a Discovery Plate Reader. The wells were excited with coherent 320 nm light and the ratio of delayed ([…] post excitation) emissions at […] (native europium fluorescence) and 665 nm (europium fluorescence transferred to allophycocyanin—an index of substrate phosphorylation) was determined (Park et al, 1999). Data Analysis: The proportion of substrate phosphorylated in the kinase reaction in the presence of compound compared with that phosphorylated in the presence of DMSO vehicle alone (HI control) was calculated using the formula: % control (POC)=(compound−average LO)/(average HI−average LO)*100. Data (consisting of POC and inhibitor concentration in μM) was fitted to a 4-parameter equation (y=A+((B−A)/(1+((x/C)^D))), where A is the minimum y (POC) value, B is the maximum y (POC), C is the x (compound concentration) at the point of inflection and D is the slope factor, using a Levenburg-Marquardt non-linear regression algorithm.
The inhibition constant (Ki) of the inhibitor was estimated from the IC50 (compound concentration at the point of inflection C) using the Cheng-Prussof equation: Ki=IC50/(1+S/Km), where S is the ATP substrate concentration, and Km is the Michaelis constant for ATP as determined experimentally. All results were expressed as the mean±the standard error of the mean. Data acquisition and non-linear regression algorithms were performed using Activity Base v5.2 and XL-fit software v4.1 respectively. All data was archived using Activity Base v5.2 software.

Compound	IC50 [1]	IC50 [2]
Cc1ncccc1-c1nncc2cc(Nc3ccc(F)cc3)ccc12 [Example 29, N-(4-fluorophenyl)-1-(2-methyl-3-pyridinyl)-6-phthalazinamine]	1.8 nM	0.7 nM
Cc1noc(C)c1-c1nncc2cc(Nc3ccc(F)cc3)ccc12 [Example 30, 1-(3,5-dimethyl-4-isoxazolyl)-N-(4-fluorophenyl)-6-phthalazinamine]	4.9 nM	0.9 nM
Fc1ccc(Nc2ccc3c(-c4ccccc4Cl)nncc3c2)cc1 [Example 31, 1-(2-chlorophenyl)-N-(4-fluorophenyl)-6-phthalazinamine]	1.7 nM	0.7 nM
Cn1nccc1-c1nncc2cc(Nc3ccc(F)cc3)ccc12 [Example 32, N-(4-fluorophenyl)-1-(1-methyl-1H-pyrazol-5-yl)-6-phthalazinamine]	4.9 nM	1 nM
Cc1cc(S(C)(=O)=O)ccc1-c1nncc2cc(Nc3ccc(F)cn3)ccc12 [Example 33, N-(5-fluoro-2-pyridinyl)-1-(2-methyl-4-(methylsulfonyl)phenyl)-6-phthalazinamine]	20 nM	0.8 nM
c1ccc(Nc2ccc3c(N4CCOCC4)nncc3c2)cc1 [Example 34, 1-(4-morpholinyl)-N-phenyl-6-phthalazinamine]	16 nM	8 nM
N-(4-fluorophenyl)-1-((2,2,2-trifluoro-1-methylethyl)oxy)-6-phthalazinamine [Example 23]	137 nM	9.1 nM
